According to patent US8871753B2, “Macrocyclic compounds and their use as kinase inhibitors” (Incyte Corporation, priority 2008, dated 2014):
Structures can show the parent of a compound that is named as a salt. Where two headings read alike, the source gives them in different places.

Columns and labels:
Assay type in all cases: biochemical
TYK2 = TYK2 (Homo sapiens, UniProt P29597); assay: TYK2 kinase inhibition (Table A1)
[1] = molecular target: T1, human JAK1 (a.a. 837-1142) (Homo sapiens, UniProt P23458); assay: In vitro JAK kinase assay (HTRF, phosphorylation of a biotinylated peptide), JAK1; conditions: read-out: JAK1 IC50
T1 construct: human JAK1 (a.a. 837-1142); His tag (N); made in house; host or cells: insect cells (baculovirus)
T1 sequence (P23458 849-1154): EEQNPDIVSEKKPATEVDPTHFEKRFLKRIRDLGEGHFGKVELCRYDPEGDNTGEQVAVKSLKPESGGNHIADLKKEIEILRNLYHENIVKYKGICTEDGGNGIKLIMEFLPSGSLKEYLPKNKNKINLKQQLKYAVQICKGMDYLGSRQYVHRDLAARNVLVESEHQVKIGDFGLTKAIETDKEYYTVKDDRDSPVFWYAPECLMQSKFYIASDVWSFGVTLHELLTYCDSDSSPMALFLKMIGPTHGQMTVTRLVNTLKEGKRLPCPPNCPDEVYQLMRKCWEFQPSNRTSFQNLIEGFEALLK
Method: (§1) The catalytic activity of JAK1, JAK2 or JAK3 was assayed by measuring the phosphorylation of a biotinylated peptide. The phosphorylated peptide was detected by homogenous time resolved fluorescence (HTRF). […] The ATP concentration in the reactions was 90 μM for JAK1, 30 μM for JAK2 and 3 μM for JAK3. Reactions were carried out at room temperature for 1 hr and then stopped with 20 μL 45 mM EDTA, 300 nM SA-APC, 6 nM Eu-Py20 in assay buffer (Perkin Elmer, Boston, Mass.). Binding to the Europium labeled antibody took place for 40 minutes and HTRF signal was measured on a Fusion plate reader (Perkin Elmer, Boston, Mass.).
(§2) The catalytic activity of JAK1, JAK2 or JAK3 was assayed by measuring the phosphorylation of a biotinylated peptide. The phosphorylated peptide was detected by homogenous time resolved fluorescence (HTRF). […] Reactions were carried out at room temperature for 1 hr and then stopped with 20 μL 45 mM EDTA, 300 nM SA-APC, 6 nM Eu-Py20 in assay buffer (Perkin Elmer, Boston, Mass.). Binding to the Europium labeled antibody took place for 40 minutes and HTRF signal was measured on a Fusion plate reader (Perkin Elmer, Boston, Mass.).

[2] = molecular target: T2, human JAK2 (a.a. 828-1132) (Homo sapiens, UniProt O60674); assay: In vitro JAK kinase assay (HTRF, phosphorylation of a biotinylated peptide), JAK2
T2 construct: JAK2 (a.a. 828-1132); His tag (N); made in house; host or cells: insect cells (baculovirus)
T2 sequence (O60674 828-1132): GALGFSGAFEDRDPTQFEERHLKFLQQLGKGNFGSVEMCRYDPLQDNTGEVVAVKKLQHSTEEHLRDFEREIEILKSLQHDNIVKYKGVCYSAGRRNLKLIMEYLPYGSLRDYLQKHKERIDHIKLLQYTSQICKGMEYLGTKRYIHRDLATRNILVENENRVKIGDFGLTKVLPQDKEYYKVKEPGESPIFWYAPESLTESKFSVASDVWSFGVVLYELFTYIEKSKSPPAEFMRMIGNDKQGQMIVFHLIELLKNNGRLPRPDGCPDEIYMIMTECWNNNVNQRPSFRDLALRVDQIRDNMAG
Method: as §1, §2

[3] = molecular target: T3, human JAK3 (a.a. 781-1124) (Homo sapiens, UniProt P52333); assay: In vitro JAK kinase assay (HTRF, phosphorylation of a biotinylated peptide), JAK3
T3 construct: JAK3 (a.a. 781-1124); His tag (N); made in house; host or cells: insect cells (baculovirus)
T3 sequence (P52333 781-1124): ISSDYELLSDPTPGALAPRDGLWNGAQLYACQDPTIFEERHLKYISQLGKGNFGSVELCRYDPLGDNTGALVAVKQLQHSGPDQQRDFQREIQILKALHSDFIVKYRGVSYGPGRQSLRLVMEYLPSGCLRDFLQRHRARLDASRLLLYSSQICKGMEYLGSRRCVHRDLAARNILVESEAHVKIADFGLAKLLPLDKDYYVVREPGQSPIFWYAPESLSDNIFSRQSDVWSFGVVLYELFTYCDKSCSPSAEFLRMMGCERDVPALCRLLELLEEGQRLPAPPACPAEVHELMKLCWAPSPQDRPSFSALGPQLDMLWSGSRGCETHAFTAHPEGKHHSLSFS
Method: as §1, §2

Chain of TYK2 (P29597 whole entry): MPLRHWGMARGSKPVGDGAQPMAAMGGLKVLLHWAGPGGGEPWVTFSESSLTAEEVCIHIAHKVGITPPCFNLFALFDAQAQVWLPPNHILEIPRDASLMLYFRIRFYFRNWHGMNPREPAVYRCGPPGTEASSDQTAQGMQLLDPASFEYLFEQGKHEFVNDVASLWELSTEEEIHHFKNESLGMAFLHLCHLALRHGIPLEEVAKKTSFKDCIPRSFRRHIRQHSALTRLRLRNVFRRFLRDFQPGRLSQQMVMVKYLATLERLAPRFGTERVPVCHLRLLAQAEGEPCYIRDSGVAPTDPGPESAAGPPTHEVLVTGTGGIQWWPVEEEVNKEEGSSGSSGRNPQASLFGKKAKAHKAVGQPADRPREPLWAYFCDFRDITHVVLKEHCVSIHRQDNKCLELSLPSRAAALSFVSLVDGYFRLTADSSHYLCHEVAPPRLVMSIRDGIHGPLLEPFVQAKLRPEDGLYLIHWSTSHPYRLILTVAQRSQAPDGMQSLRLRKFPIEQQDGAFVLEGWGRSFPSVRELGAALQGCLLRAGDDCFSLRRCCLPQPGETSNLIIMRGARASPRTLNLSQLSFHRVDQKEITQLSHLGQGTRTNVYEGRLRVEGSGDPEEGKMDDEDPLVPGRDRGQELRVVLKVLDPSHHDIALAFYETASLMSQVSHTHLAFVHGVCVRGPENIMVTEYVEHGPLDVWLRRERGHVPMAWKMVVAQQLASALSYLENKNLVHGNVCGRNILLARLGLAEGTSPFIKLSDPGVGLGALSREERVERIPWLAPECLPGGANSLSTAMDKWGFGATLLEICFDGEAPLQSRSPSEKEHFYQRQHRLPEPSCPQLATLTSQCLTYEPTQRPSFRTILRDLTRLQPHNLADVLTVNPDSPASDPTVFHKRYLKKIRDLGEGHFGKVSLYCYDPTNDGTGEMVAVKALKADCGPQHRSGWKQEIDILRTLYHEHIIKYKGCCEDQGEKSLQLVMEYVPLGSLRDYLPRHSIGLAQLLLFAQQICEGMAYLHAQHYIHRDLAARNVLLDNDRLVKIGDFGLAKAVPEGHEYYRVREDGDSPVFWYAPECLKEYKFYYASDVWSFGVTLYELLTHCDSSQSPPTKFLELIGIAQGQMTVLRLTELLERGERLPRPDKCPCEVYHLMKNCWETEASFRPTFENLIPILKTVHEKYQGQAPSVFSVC

IC50 ([1]; Table D1) | IC50 ([2]; Table D1) | SMILES | further results
31 nM | 123 nM | O=C(CC1CN(C(=O)c2nccs2)C1)Nc1ccc2cc1CCc1cncc(c1)Nc1ncc(Cl)c(n1)N2 [Example D145, N-[6-Chloro-2,4,8,18,22-pentaazatetracyclo[14.3.1.1(3,7).1(9,13)]docosa-1(20),3(22),4,6,9(21),10,12,16,18-nonaen-12-yl]-2-[1-(1,3-thiazol-2-ylcarbonyl)azetidin-3-yl]acetamide bis(trifluoroacetate)] | IC50 (TYK2; Table D1): 775 nM; IC50 ([3]; Table D1): > 1000 nM
 |  | Cc1cc(CC(=O)Nc2ccc3cc2CCc2cccc(c2)Nc2ncc(Cl)c(n2)N3)on1 [Example C30, N-[6-Chloro-2,4,8,22-tetraazatetracyclo[14.3.1.1(3,7).1(9,13)]docosa-1(20),3(22),4,6,9(21),10,12,16,18-nonaen-12-yl]-2-(3-methylisoxazol-5-yl)acetamide trifluoroacetate] | IC50 (TYK2): 136 nM; IC50 [1]: 31 nM; IC50 [2]: 56 nM; IC50 [3]: 990 nM
1.6 nM | 15 nM | O=C(C[C@@H]1CCN(c2nc3ccccc3s2)C1)Nc1ccc2cc1CCc1cncc(c1)Nc1ncc(Cl)c(n1)N2 [Example D137, 2-[(3S)-1-(1,3-Benzothiazol-2-yl)pyrrolidin-3-yl]-N-[6-chloro-2,4,8,18,22-pentaazatetracyclo[14.3.1.1(3,7).1(9,13)]docosa-1(20),3(22),4,6,9(21),10,12,16,18-nonaen-12-yl]acetamide tris(trifluoroacetate)] | IC50 (TYK2; Table D1): 66 nM; IC50 ([3]; Table D1): > 1000 nM
12 nM | 159 nM | O=C(C[C@H]1CCN(c2nc3cccnc3o2)C1)Nc1ccc2cc1CCc1cncc(c1)Nc1ncc(Cl)c(n1)N2 [Example D139, N-[6-Chloro-2,4,8,18,22-pentaazatetracyclo[14.3.1.1(3,7).1(9,13)]docosa-1(20),3(22),4,6,9(21),10,12,16,18-nonaen-12-yl]-2-[(3R)-1-[1,3]oxazolo[5,4-b]pyridin-2-ylpyrrolidin-3-yl]acetamide tris(trifluoroacetate)] | IC50 (TYK2; Table D1): 282 nM; IC50 ([3]; Table D1): > 1000 nM
53 nM | 103 nM | c1cc2cc(c1)Nc1ccnc(n1)Nc1cncc(c1)CC2 [Example D217, 2,4,8,18,22-Pentaazatetracyclo[14.3.1.1(3,7).1(9,13)]docosa-1(20),3(22),4,6,9(21),10,12,16,18-nonaene bis(trifluoroacetate)] | IC50 ([3]; Table D1): > 400 nM
 |  | O=C(Nc1ccc2cc1CCc1cccc(c1)Nc1ncc(Cl)c(n1)N2)c1nc2ccccc2s1 [Example B74, N-[6-Chloro-2,4,8,22-tetraazatetracyclo[14.3.1.1(3,7).1(9,13)]docosa-1(20), 3(22),4,6,9(21),10,12,16,18-nonaen-12-yl]-1,3-benzothiazole-2-carboxamide trifluoroacetate] | IC50 (TYK2; Table B1): > 1000 nM; IC50 ([1]; Table B1): > 1000 nM; IC50 ([3]; Table B1): > 1000 nM
3.3 nM | 84 nM | O=C(C[C@H]1CCN(C(=O)Nc2ccccc2)C1)Nc1ccc2cc1CCc1cncc(c1)Nc1ncc(Cl)c(n1)N2 [Example D97, (3R)-3-(2-{[6-Chloro-2,4,8,18,22-pentaazatetracyclo[14.3.1.1(3,7).1(9,13)]docosa-1(20),3(22),4,6,9(21),10,12,16,18-nonaen-12-yl]amino}-2-oxoethyl)-N-phenylpyrrolidine-1-carboxamide bis(trifluoroacetate)] | 
9.9 nM | 142 nM | CS(=O)(=O)N1CC[C@H](CC(=O)Nc2ccc3cc2CCc2cncc(c2)Nc2ncc(Cl)c(n2)N3)C1 [Example D112, N-[6-Chloro-2,4,8,18,22-pentaazatetracyclo[14.3.1.1(3,7).1(9,13)]docosa-1(20),3(22),4,6,9(21),10,12,16,18-nonaen-12-yl]-2-[(3R)-1-(methylsulfonyl)pyrrolidin-3-yl]acetamide bis(trifluoroacetate)] | 
15 nM | 84 nM | O=C(C[C@H]1CCN(C(=O)c2c[nH]nn2)C1)Nc1ccc2cc1CCc1cncc(c1)Nc1ncc(Cl)c(n1)N2 [Example D129-a, N-[6-Chloro-2,4,8,18,22-pentaazatetracyclo[14.3.1.1(3,7).1(9,13)]docosa-1(20),3(22),4,6,9(21),10,12,16,18-nonaen-12-yl]-2-[(3R)-1-(1H-1,2,3-triazol-4-ylcarbonyl)pyrrolidin-3-yl]acetamide bis(trifluoroacetate)] | 
6.7 nM | 113 nM | O=C(C[C@H]1CCN(C(=O)Nc2cccc(F)c2)C1)Nc1ccc2cc1CCc1cncc(c1)Nc1ncc(Cl)c(n1)N2 [Example D103, (3R)-3-(2-{[6-Chloro-2,4,8,18,22-pentaazatetracyclo[14.3.1.1(3,7).1(9,13)]docosa-1(20),3(22),4,6,9(21),10,12,16,18-nonaen-12-yl]amino}-2-oxoethyl)-N-(3-fluorophenyl)pyrrolidine-1-carboxamide bis(trifluoroacetate)] | 
32 nM | 256 nM | Cn1ccc(C(=O)N2CC[C@H](CC(=O)Nc3ccc4cc3CCc3cncc(c3)Nc3ncc(Cl)c(n3)N4)C2)n1 [Example D106, N-[6-Chloro-2,4,8,18,22-pentaazatetracyclo[14.3.1.1(3,7).1(9,13)]docosa-1(20),3(22),4,6,9(21),10,12,16,18-nonaen-12-yl]-2-{(3R)-1-[(1-methyl-1H-pyrazol-3-yl)carbonyl]pyrrolidin-3-yl}acetamide bis(trifluoroacetate)] | 
64 nM | > 1000 nM | O=C(C[C@H]1CCCN(c2nc3ccccc3s2)C1)Nc1ccc2cc1CCc1cncc(c1)Nc1ncc(Cl)c(n1)N2 [Example D212, 2-[(3R)-1-(1,3-Benzothiazol-2-yl)piperidin-3-yl]-N-[6-chloro-2,4,8,18,22-pentaazatetracyclo[14.3.1.1(3,7).1(9,13)]docosa-1(20),3(22),4,6,9(21),10,12,16,18-nonaen-12-yl]acetamide tris(trifluoroacetate)] | 
25 nM | 185 nM | Cn1cc(C(=O)N2CC[C@H](CC(=O)Nc3ccc4cc3CCc3cncc(c3)Nc3ncc(Cl)c(n3)N4)C2)cn1 [Example D107, N-[6-Chloro-2,4,8,18,22-pentaazatetracyclo[14.3.1.1(3,7).1(9,13)]docosa-1(20),3(22),4,6,9(21),10,12,16,18-nonaen-12-yl]-2-{(3R)-1-[(1-methyl-1H-pyrazol-4-yl)carbonyl]pyrrolidin-3-yl}acetamide bis(trifluoroacetate)] | 
4.2 nM | 160 nM | O=C(C[C@@H]1CCCN(c2nc3ccccc3s2)C1)Nc1ccc2cc1CCc1cncc(c1)Nc1ncc(Cl)c(n1)N2 [Example D211, 2-[(3S)-1-(1,3-Benzothiazol-2-yl)piperidin-3-yl]-N-[6-chloro-2,4,8,18,22-pentaazatetracyclo[14.3.1.1(3,7).1(9,13)]docosa-1(20),3(22),4,6,9(21),10,12,16,18-nonaen-12-yl]acetamide tris(trifluoroacetate)] | 
12 nM | 122 nM | N#Cc1ccc(NC(=O)N2CC[C@H](CC(=O)Nc3ccc4cc3CCc3cncc(c3)Nc3ncc(Cl)c(n3)N4)C2)cc1 [Example D98, (3R)-3-(2-{[6-Chloro-2,4,8,18,22-pentaazatetracyclo[14.3.1.1(3,7).1(9,13)]docosa-1(20),3(22),4,6,9(21),10,12,16,18-nonaen-12-yl]amino}-2-oxoethyl)-N-(4-cyanophenyl)pyrrolidine-1-carboxamide bis(trifluoroacetate)] | 
